# Measured values: patent US11000033B2, “Ketone or oxime compound, and herbicide” (NISSAN CHEMICAL CORPORATION, priority 2014, dated 2021)
# Columns and labels:
# Assay type in all cases: in vivo
# [1] = system: beet; assay: Test Example 5: effect on crop by foliage application, plastic box (symbol f); settings: 320 g/ha, 3 weeks after application
# Method in brief: (§1)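 Greenhouse culture at 25° C. to 30° C. followed spot-like sowing into sterilized diluvial soil, with seed covered by roughly 1.5 cm of soil.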
# [2] = system: Monochoria vaginalis; assay: Test Example 1: herbicidal activity, application before weed generation in submerged conditions (symbol C); settings: application herbicide amount 320 g/ha
# Method in brief: (§2)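 Weeds are sown into submerged alluvial soil alongside transplanted 2.5-leaf rice, and the compound, as an emulsion diluted to a set rate, is applied onto the water before emergence. Rating on the 0–5 herbicidal-ratio scale follows 3 weeks of greenhouse growth at 25–30 °C.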
# [3] = system: corn; assay: Test Example 4: effect on crop by soil treatment (symbol c); settings: for c: corn, effect grade on crop: 320 g/ha
# Method in brief: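 Greenhouse culture at 25° C. to 30° C. followed sowing of seed in spots on sterilized diluvial soil with a soil cover close to 1.5 cm thick.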
# [4] = system: Setaria viridis; assay: Test Example 5: herbicidal effect by foliage application, plastic box (symbol G); settings: 320 g/ha, 3 weeks after application
# Method in brief: (§3)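 Visual herbicidal score, taken three weeks post-application, of seedlings sprayed on the foliage with water-diluted emulsion at a predetermined amount; plants were 14 days old, greenhouse-raised at 25° C. to 30° C.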
# [5] = system: rapeseed; assay: Test Example 4: effect on crop by soil treatment (symbol g); settings: for g: rapeseed, effect grade on crop: 320 g/ha
# Method in brief: (§4)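 The test used sterilized diluvial soil. Seed was set down in spots and overlaid with about 1.5 cm of soil before growth in a greenhouse kept at 25° C. to 30° C.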
# [6] = system: Scirpus juncoides; assay: Test Example 1: herbicidal activity, application before weed generation in submerged conditions (symbol B); settings: application herbicide amount 320 g/ha
# Method in brief: as §2
# [7] = system: Lolium multiflorum Lam.; assay: Test Example 5: herbicidal effect by foliage application, plastic box (symbol K); settings: 320 g/ha, 3 weeks after application
# Method in brief: as §3
# [8] = system: Amaranthus retroflexus; assay: Test Example 4: herbicidal effect by soil treatment (symbol N); settings: for N: Amaranthus retroflexus, herbicidal effect grade: 320 g/ha
# Method in brief: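 Seeds were sown in sterilized diluvial soil, covered with about 1.5 cm of soil, and the soil surface was sprayed with a water-diluted emulsion of the compound at a predetermined rate. Plants grew in a greenhouse at 25° C. to 30° C.; effects were scored visually 3 weeks after application.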
# [9] = system: wheat; assay: Test Example 5: effect on crop by foliage application, plastic box (symbol e); settings: 320 g/ha, 3 weeks after application
# Method in brief: as §1
# [10] = system: Galium spurium; assay: Test Example 5: herbicidal effect by foliage application, plastic box (symbol Q); settings: 320 g/ha, 3 weeks after application
# Method in brief: as §3
# [11] = system: beet; assay: Test Example 4: effect on crop by soil treatment (symbol f); settings: for f: beet, effect grade on crop: 320 g/ha
# Method in brief: as §4
# [12] = system: rapeseed; assay: Test Example 5: effect on crop by foliage application, plastic box (symbol g); settings: 320 g/ha, 3 weeks after application
# Method in brief: as §1
# [13] = system: Apera spica-venti; assay: Test Example 5: herbicidal effect by foliage application, plastic box (symbol L); settings: 320 g/ha, 3 weeks after application
# Method in brief: as §3
# [14] = application herbicide amount 320 g/ha
Structure (SMILES),"f: beet, effect on crop (criteria 0-5) [1]","Herbicidal effect grade, C: Monochoria vaginalis [2]","c: corn, effect grade on crop [3]","G: Setaria viridis, herbicidal effect (criteria 0-5) [4]","g: rapeseed, effect grade on crop [5]","Herbicidal effect grade, B: Scirpus juncoides [6]","K: Lolium multiflorum Lam., herbicidal effect (criteria 0-5) [7]","N: Amaranthus retroflexus, herbicidal effect grade [8]","e: wheat, effect on crop (criteria 0-5) [9]","Q: Galium spurium, herbicidal effect (criteria 0-5) [10]","f: beet, effect grade on crop [11]","g: rapeseed, effect on crop (criteria 0-5) [12]","L: Apera spica-venti, herbicidal effect (criteria 0-5) [13]",other results
CON=C(CC1CC(O)=C(c2c(C)cc(-c3ccccc3)cc2C)C1=O)C1CC1 (mixture of isomers) [9-028],,,,,,,,,,,,,,"f: beet, effect on crop grade [1]: 3 (Herbicidal ratio of 40% or higher and lower than 70%); C (Monochoria vaginalis) herbicidal effect grade [2]: 5 (Herbicidal ratio of 90% or more (almost completely withered)); Effect on crop grade, c: corn [3, 14]: 1 (Herbicidal ratio of 5% or higher and lower than 20%); G: Setaria viridis, herbicidal effect grade [4]: 5 (Herbicidal ratio of 90% or more (almost completely withered)); Effect on crop grade, g: rapeseed [5, 14]: 4 (Herbicidal ratio of 70% or higher and lower than 90%); B (Scirpus juncoides) herbicidal effect grade [6]: 5 (Herbicidal ratio of 90% or more (almost completely withered)); K: Lolium multiflorum Lam., herbicidal effect grade [7]: 5 (Herbicidal ratio of 90% or more (almost completely withered)); Herbicidal effect grade, N: Amaranthus retroflexus [8, 14]: 0 (Herbicidal ratio of 5% or lower (almost no effect)); e: wheat, effect on crop grade [9]: 4 (Herbicidal ratio of 70% or higher and lower than 90%); Q: Galium spurium, herbicidal effect grade [10]: 4 (Herbicidal ratio of 70% or higher and lower than 90%); Effect on crop grade, f: beet [11, 14]: 0 (Herbicidal ratio of 5% or lower (almost no effect)); g: rapeseed, effect on crop grade [12]: 4 (Herbicidal ratio of 70% or higher and lower than 90%); L: Apera spica-venti, herbicidal effect grade [13]: 5 (Herbicidal ratio of 90% or more (almost completely withered))"
CC(CC1CC(O)=C(c2c(C)cc(C)cc2C)C1=O)=NOCc1ccccc1Cl (centres unmarked) [1-113],0 (Herbicidal ratio of 5% or lower (almost no effect)),4 (Herbicidal ratio of 70% or higher and lower than 90%),0 (Herbicidal ratio of 5% or lower (almost no effect)),4 (Herbicidal ratio of 70% or higher and lower than 90%),0 (Herbicidal ratio of 5% or lower (almost no effect)),4 (Herbicidal ratio of 70% or higher and lower than 90%),5 (Herbicidal ratio of 90% or more (almost completely withered)),0 (Herbicidal ratio of 5% or lower (almost no effect)),3 (Herbicidal ratio of 40% or higher and lower than 70%),0 (Herbicidal ratio of 5% or lower (almost no effect)),0 (Herbicidal ratio of 5% or lower (almost no effect)),5 (Herbicidal ratio of 90% or more (almost completely withered)),5 (Herbicidal ratio of 90% or more (almost completely withered)),
CC(CC1CC(O)=C(c2c(C)cc(C)cc2C)C1=O)=NOCC(C)Br (centres unmarked) [1-135],0 (Herbicidal ratio of 5% or lower (almost no effect)),1 (Herbicidal ratio of 5% or higher and lower than 20%),0 (Herbicidal ratio of 5% or lower (almost no effect)),5 (Herbicidal ratio of 90% or more (almost completely withered)),2 (Herbicidal ratio of 20% or higher and lower than 40%),5 (Herbicidal ratio of 90% or more (almost completely withered)),5 (Herbicidal ratio of 90% or more (almost completely withered)),0 (Herbicidal ratio of 5% or lower (almost no effect)),2 (Herbicidal ratio of 20% or higher and lower than 40%),0 (Herbicidal ratio of 5% or lower (almost no effect)),0 (Herbicidal ratio of 5% or lower (almost no effect)),4 (Herbicidal ratio of 70% or higher and lower than 90%),5 (Herbicidal ratio of 90% or more (almost completely withered)),
CC(CC1CC(O)=C(c2c(C)cc(C)cc2C)C1=O)=NOCc1ccc(F)cc1 (centres unmarked) [1-136],0 (Herbicidal ratio of 5% or lower (almost no effect)),5 (Herbicidal ratio of 90% or more (almost completely withered)),0 (Herbicidal ratio of 5% or lower (almost no effect)),5 (Herbicidal ratio of 90% or more (almost completely withered)),3 (Herbicidal ratio of 40% or higher and lower than 70%),5 (Herbicidal ratio of 90% or more (almost completely withered)),5 (Herbicidal ratio of 90% or more (almost completely withered)),0 (Herbicidal ratio of 5% or lower (almost no effect)),3 (Herbicidal ratio of 40% or higher and lower than 70%),4 (Herbicidal ratio of 70% or higher and lower than 90%),0 (Herbicidal ratio of 5% or lower (almost no effect)),4 (Herbicidal ratio of 70% or higher and lower than 90%),5 (Herbicidal ratio of 90% or more (almost completely withered)),
CC(CC1CC(O)=C(c2c(C)cc(C)cc2C)C1=O)=NOCc1ccc(Cl)cc1 (centres unmarked) [1-137],0 (Herbicidal ratio of 5% or lower (almost no effect)),5 (Herbicidal ratio of 90% or more (almost completely withered)),0 (Herbicidal ratio of 5% or lower (almost no effect)),5 (Herbicidal ratio of 90% or more (almost completely withered)),0 (Herbicidal ratio of 5% or lower (almost no effect)),5 (Herbicidal ratio of 90% or more (almost completely withered)),5 (Herbicidal ratio of 90% or more (almost completely withered)),,3 (Herbicidal ratio of 40% or higher and lower than 70%),0 (Herbicidal ratio of 5% or lower (almost no effect)),0 (Herbicidal ratio of 5% or lower (almost no effect)),4 (Herbicidal ratio of 70% or higher and lower than 90%),5 (Herbicidal ratio of 90% or more (almost completely withered)),
CC(CC1CC(O)=C(c2c(C)cc(C)cc2C)C1=O)=NOCc1ccc(C(F)(F)F)cc1 (centres unmarked) [1-138],0 (Herbicidal ratio of 5% or lower (almost no effect)),5 (Herbicidal ratio of 90% or more (almost completely withered)),0 (Herbicidal ratio of 5% or lower (almost no effect)),5 (Herbicidal ratio of 90% or more (almost completely withered)),0 (Herbicidal ratio of 5% or lower (almost no effect)),5 (Herbicidal ratio of 90% or more (almost completely withered)),5 (Herbicidal ratio of 90% or more (almost completely withered)),0 (Herbicidal ratio of 5% or lower (almost no effect)),3 (Herbicidal ratio of 40% or higher and lower than 70%),3 (Herbicidal ratio of 40% or higher and lower than 70%),0 (Herbicidal ratio of 5% or lower (almost no effect)),4 (Herbicidal ratio of 70% or higher and lower than 90%),5 (Herbicidal ratio of 90% or more (almost completely withered)),
